Measurements taken from the supplement of paper PMC10307832.

What was measured:
Assay in all cases: relative viability (nuclei count vs DMSO), 5 days (fraction); higher = more cells survive
201T = tested on: 201T
Outline: (§1)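 Cells from lung cancer lines were seeded into 1536-well plates and, one day later, dosed by pin tool. Treatments were either a single drug or a fixed dose of an anchor drug with five library-drug doses (not always all listed) in √10 steps. After 5 days, nuclei were stained in a one-step fixation (final 0.05% Triton X-100, 1% formaldehyde, 1 ug/ml Hoechst) and counted on 4× images, and relative viability is the treated-to-vehicle nuclei ratio, as the median of duplicate plates.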

LOU-NH91 = tested on: LOU-NH91
Outline: as §1

NCI-H727 = tested on: NCI-H727
Outline: as §1

HCC-366 = tested on: HCC-366
Outline: as §1

HARA = tested on: HARA
Outline: as §1

ABC-1 = tested on: ABC-1
Outline: as §1

NCI-H2009 = tested on: NCI-H2009
Outline: as §1

EKVX = tested on: EKVX
Outline: as §1

NCI-H1666 = tested on: NCI-H1666
Outline: as §1

NCI-H3122 = tested on: NCI-H3122
Outline: as §1

NCI-H460 = tested on: NCI-H460
Outline: as §1

PC-14 = tested on: PC-14
Outline: as §1

BEN = tested on: BEN
Outline: as §1

NCI-H661 = tested on: NCI-H661
Outline: as §1

NCI-H2170 = tested on: NCI-H2170
Outline: as §1

NCI-H1437 = tested on: NCI-H1437
Outline: as §1

COR-L 105 = tested on: COR-L 105
Outline: as §1

CAL-12T = tested on: CAL-12T
Outline: as §1

LK-2 = tested on: LK-2
Outline: as §1

NCI-H1650 = tested on: NCI-H1650
Outline: as §1

Nc1ccn([C@@H]2O[C@H](CO)[C@@H](O)[C@@H]2O)c(=O)n1 [Cytarabine] + CS(=O)(=O)CCNCc1ccc(-c2ccc3ncnc(Nc4ccc(OCc5cccc(F)c5)c(Cl)c4)c3c2)o1 [Lapatinib] (partner 2 µM)
relative viability (201T; first compound 0.005 µM): 1.08 | relative viability (201T; first compound 0.01581 µM): 0.997 | relative viability (201T; first compound 0.05 µM): 1.04 | relative viability (201T; first compound 0.1581 µM): 0.889 | relative viability (201T; first compound 0.5 µM): 0.919 | relative viability (LOU-NH91; first compound 0.005 µM): 0.735 | relative viability (LOU-NH91; first compound 0.01581 µM): 0.729 | relative viability (LOU-NH91; first compound 0.05 µM): 0.588 | relative viability (LOU-NH91; first compound 0.1581 µM): 0.669 | relative viability (LOU-NH91; first compound 0.5 µM): 0.554 | relative viability (NCI-H727; first compound 0.005 µM): 0.766 | relative viability (NCI-H727; first compound 0.01581 µM): 0.602 | relative viability (NCI-H727; first compound 0.05 µM): 0.606 | relative viability (NCI-H727; first compound 0.1581 µM): 0.339 | relative viability (NCI-H727; first compound 0.5 µM): 0.28 | relative viability (HCC-366; first compound 0.005 µM): 1.16 | relative viability (HCC-366; first compound 0.01581 µM): 0.85 | relative viability (HCC-366; first compound 0.05 µM): 1.05 | relative viability (HCC-366; first compound 0.1581 µM): 0.0753 | relative viability (HCC-366; first compound 0.5 µM): 0.0431 | relative viability (HARA; first compound 0.005 µM): 0.692 | relative viability (HARA; first compound 0.01581 µM): 0.51 | relative viability (HARA; first compound 0.05 µM): 0.365 | relative viability (HARA; first compound 0.1581 µM): 0.189 | relative viability (HARA; first compound 0.5 µM): 0.132 | relative viability (ABC-1; first compound 0.005 µM): 1.29 | relative viability (ABC-1; first compound 0.01581 µM): 1.24 | relative viability (ABC-1; first compound 0.1581 µM): 1.16 | relative viability (ABC-1; first compound 0.5 µM): 1.03 | relative viability (NCI-H2009; first compound 0.005 µM): 0.992 | relative viability (NCI-H2009; first compound 0.01581 µM): 0.878 | relative viability (NCI-H2009; first compound 0.05 µM): 0.444 | relative viability (NCI-H2009; first compound 0.1581 µM): 0.694 | relative viability (NCI-H2009; first compound 0.5 µM): 0.349 | relative viability (EKVX; first compound 0.005 µM): 0.225 | relative viability (EKVX; first compound 0.01581 µM): 0.18 | relative viability (EKVX; first compound 0.05 µM): 0.153 | relative viability (EKVX; first compound 0.1581 µM): 0.138 | relative viability (EKVX; first compound 0.5 µM): 0.112 | relative viability (NCI-H1666; first compound 0.005 µM): 0.455 | relative viability (NCI-H1666; first compound 0.01581 µM): 0.549 | relative viability (NCI-H1666; first compound 0.05 µM): 0.378 | relative viability (NCI-H1666; first compound 0.1581 µM): 0.308 | relative viability (NCI-H1666; first compound 0.5 µM): 0.262 | relative viability (NCI-H3122; first compound 0.005 µM): 1.12 | relative viability (NCI-H3122; first compound 0.01581 µM): 0.912 | relative viability (NCI-H3122; first compound 0.05 µM): 0.91 | relative viability (NCI-H3122; first compound 0.1581 µM): 0.676 | relative viability (NCI-H3122; first compound 0.5 µM): 0.551 | relative viability (NCI-H460; first compound 0.005 µM): 0.333 | relative viability (NCI-H460; first compound 0.01581 µM): 1.1 | relative viability (NCI-H460; first compound 0.05 µM): 0.4 | relative viability (NCI-H460; first compound 0.1581 µM): 0.0338 | relative viability (NCI-H460; first compound 0.5 µM): 0.0305 | relative viability (PC-14; first compound 0.005 µM): 0.282 | relative viability (PC-14; first compound 0.01581 µM): 0.236 | relative viability (PC-14; first compound 0.05 µM): 0.273 | relative viability (PC-14; first compound 0.1581 µM): 0.17 | relative viability (PC-14; first compound 0.5 µM): 0.221 | relative viability (BEN; first compound 0.005 µM): 0.606 | relative viability (BEN; first compound 0.01581 µM): 0.549 | relative viability (BEN; first compound 0.05 µM): 0.414 | relative viability (BEN; first compound 0.1581 µM): 0.333 | relative viability (BEN; first compound 0.5 µM): 0.256 | relative viability (NCI-H661; first compound 0.005 µM): 0.544 | relative viability (NCI-H661; first compound 0.01581 µM): 0.465 | relative viability (NCI-H661; first compound 0.05 µM): 0.49 | relative viability (NCI-H661; first compound 0.1581 µM): 0.278 | relative viability (NCI-H661; first compound 0.5 µM): 0.233 | relative viability (NCI-H2170; first compound 0.01581 µM): 0.233 | relative viability (NCI-H2170; first compound 0.05 µM): 0.231 | relative viability (NCI-H2170; first compound 0.1581 µM): 0.19 | relative viability (NCI-H2170; first compound 0.5 µM): 0.182 | relative viability (NCI-H1437; first compound 0.005 µM): 0.548 | relative viability (NCI-H1437; first compound 0.01581 µM): 0.453 | relative viability (NCI-H1437; first compound 0.05 µM): 0.378 | relative viability (NCI-H1437; first compound 0.1581 µM): 0.177 | relative viability (NCI-H1437; first compound 0.5 µM): 0.147 | relative viability (COR-L 105; first compound 0.005 µM): 0.299 | relative viability (COR-L 105; first compound 0.01581 µM): 0.328 | relative viability (COR-L 105; first compound 0.05 µM): 0.297 | relative viability (COR-L 105; first compound 0.1581 µM): 0.293 | relative viability (COR-L 105; first compound 0.5 µM): 0.252 | relative viability (CAL-12T; first compound 0.005 µM): 0.848 | relative viability (CAL-12T; first compound 0.01581 µM): 0.629 | relative viability (CAL-12T; first compound 0.05 µM): 0.542 | relative viability (CAL-12T; first compound 0.1581 µM): 0.388 | relative viability (CAL-12T; first compound 0.5 µM): 0.269 | relative viability (LK-2; first compound 0.005 µM): 0.627 | relative viability (LK-2; first compound 0.01581 µM): 0.479 | relative viability (LK-2; first compound 0.05 µM): 0.395 | relative viability (LK-2; first compound 0.1581 µM): 0.248 | relative viability (LK-2; first compound 0.5 µM): 0.283 | relative viability (NCI-H1650; first compound 0.005 µM): 0.807 | relative viability (NCI-H1650; first compound 0.01581 µM): 0.604 | relative viability (NCI-H1650; first compound 0.05 µM): 0.317 | relative viability (NCI-H1650; first compound 0.1581 µM): 0.247 | relative viability (NCI-H1650; first compound 0.5 µM): 0.155
